Measured values: US12590099B2, “Inhibitors of histone deacetylase useful for the treatment or prevention of HIV infection” (Merck Sharp & Dohme LLC, priority 2018, dated 2026)
pIC50: −log10 of the molar value. Where two headings read alike, the source gives them in different places.

Assays:
[1] = test system: KARN cells (Jurkat 2C4); experiment: cells; format: cell-based; conditions: Homo sapiens, Jurkat
Procedure: KARN cells (Jurkat 2C4) were licensed from the laboratory of Dr. John Karn, Case Western Reserve University, School of Medicine. […] An atmosphere of 5% CO2 and 90% humidity was used for all culture work.
Day 1: After the 3-4 day growth period, the cells were transferred from the T175 flask to a 50 ml conical tube and gently pelleted at 1000 rpm for 5 minutes. […] These flasks were returned to the incubator.
Day 2: Cell Preparation: The next day, the cells were transferred from each T175 flask to an individual 50 ml conical tube and gently pelleted at 1000 rpm for 5 minutes. The cells were gently resuspended in assay media (30 ml) and pelleted again. […] The cells were counted using the ViCell (Beckman Coulter) and diluted as necessary. […] The plates were covered and returned to the incubator prior to compound addition.
The reference compounds, DMSO and SAHA were then added to the compound plate. […] The final high concentration for SAHA and the test compounds in the assays was 40 μM. The final DMSO concentration in all wells was 0.4%. The minimal induction reference compound used was DMSO and the maximal induction reference compound used was SAHA (2 μM final concentration in the assay).
Day 3: The luciferase detection reagent was prepared by transferring the contents of one bottle of Steady-Glo buffer to one bottle of Steady-Glo aubstrate (Steady-Glo Luciferase Assay System, Promega, catalog number E2520), followed by gently mixing until the substrate was thoroughly dissolved and the solution was equilibrated to room temperature. […] The Steady-Glo Reagent was added to the plates (30 μl/well), which were then covered with a black lid and incubated for 10 minutes at room temperature. The plates were then read for luminescence on an Envision (Perkin Elmer) using the ultrasensitive mode (US LUM), […] and 384-well aperture. Luminescence counts in the DMSO reference wells were considered as 0% induction, while those in the 2 μM SAHA reference wells were considered as 100% induction. Dose response curves were plotted as test compound concentration (X-axis) vs. percent activation (Y-axis) using a 4-parameter fit based on the Levenberg-Marquardt algorithm.

[2] = target: T1, HDAC6 (Homo sapiens, UniProt Q9UBN7); experiment: Human HDAC enzyme inhibitor Fluor-de-Lys assay, HDAC6; format: biochemical
T1 sequence (Q9UBN7 1-1215): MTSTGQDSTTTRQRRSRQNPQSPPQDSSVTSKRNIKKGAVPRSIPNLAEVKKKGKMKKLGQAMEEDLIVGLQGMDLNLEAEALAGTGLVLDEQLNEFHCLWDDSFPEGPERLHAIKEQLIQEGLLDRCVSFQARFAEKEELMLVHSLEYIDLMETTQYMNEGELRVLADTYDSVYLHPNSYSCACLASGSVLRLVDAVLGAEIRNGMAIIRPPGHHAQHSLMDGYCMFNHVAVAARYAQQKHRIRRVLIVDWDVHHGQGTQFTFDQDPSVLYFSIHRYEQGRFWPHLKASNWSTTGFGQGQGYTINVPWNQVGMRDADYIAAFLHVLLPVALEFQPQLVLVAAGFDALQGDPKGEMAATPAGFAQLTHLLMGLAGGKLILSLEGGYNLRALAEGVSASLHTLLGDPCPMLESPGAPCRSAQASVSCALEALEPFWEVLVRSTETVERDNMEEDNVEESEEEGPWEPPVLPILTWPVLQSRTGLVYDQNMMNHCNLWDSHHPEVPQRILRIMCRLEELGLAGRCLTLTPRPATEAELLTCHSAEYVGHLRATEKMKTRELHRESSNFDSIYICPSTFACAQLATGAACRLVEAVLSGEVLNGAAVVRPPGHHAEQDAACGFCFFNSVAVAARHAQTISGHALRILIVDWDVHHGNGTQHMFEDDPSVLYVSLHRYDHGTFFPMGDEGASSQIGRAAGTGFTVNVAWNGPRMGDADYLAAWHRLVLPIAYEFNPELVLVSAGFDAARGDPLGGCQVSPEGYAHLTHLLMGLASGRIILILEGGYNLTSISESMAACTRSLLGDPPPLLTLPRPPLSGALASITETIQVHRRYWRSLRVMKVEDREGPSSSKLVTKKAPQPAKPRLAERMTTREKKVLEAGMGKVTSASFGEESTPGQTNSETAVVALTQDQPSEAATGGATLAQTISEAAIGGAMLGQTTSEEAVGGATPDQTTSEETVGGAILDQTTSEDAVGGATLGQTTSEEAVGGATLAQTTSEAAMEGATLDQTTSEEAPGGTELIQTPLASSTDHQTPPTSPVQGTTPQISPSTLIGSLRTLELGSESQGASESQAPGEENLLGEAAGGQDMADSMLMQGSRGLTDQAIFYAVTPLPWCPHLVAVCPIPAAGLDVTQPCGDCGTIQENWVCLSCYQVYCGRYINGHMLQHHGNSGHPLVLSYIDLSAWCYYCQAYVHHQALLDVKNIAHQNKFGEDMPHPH
Procedure: (§1) Human HDAC Enzyme Inhibitor Fluor-De-Lys Assay
(§2) Recombinant human HDAC8 (BML-SE145-0100) and HDAC10 (BML-SE559-0050) enzymes, HDAC substrates BML-KI104 and BML-KI178, and HDAC developer solutions BML-KI105 and BML-KI176 were purchased from Enzo Life Sciences. […] HDAC inhibitor suberoylanilide hydroxamic acid (SAHA) was obtained from Indofine and trichostatin A (TSA) was obtained from Sigma-Aldrich.
(§3) The histone deacetylase activities of HDAC1, HDAC2, HDAC3, HDAC6, and HDAC8 were measured in modified FLUOR DE LYS assays in 384-well format. In this assay, HDAC enzymes are initially incubated with an ε-acetyl (or -trifluoroacetyl)-L-lysine-containing substrate with a C-terminal amide having aminomethylcoumarin as the amine component. HDACs cleave the ε-acetyl group, rendering the resulting product susceptible to AMC cleavage by trypsin. The released AMC is then detected by its fluorescence.
(§4) The HDAC3/SMRT assay employed buffer B, consisting of 20 mM HEPES, pH 8.0, 1 mM MgCl2, 50 mM NaCl, 2.7 mM KCl, 0.05% BSA, 0.005% Tween 20, and 10 μM IP4. […] The HDAC8 assay employed buffer D, consisting of 20 mM HEPES, pH 8.0, 1 mM MgCl2, 100 mM NaCl, 20 mM KCl, 0.10% n-octyl-β-D-glucoside (Anatrace) and 0.05% BSA. All steps were performed at room temperature (23° C.). The assay was performed by pre-incubating serial dilutions of test compounds with the target HDAC prior to initiation with substrate. Each compound was titrated in a 10-point dose response, using a 1:3 fold dilution scheme, with 0.15 ul of solution added by ECH0555 to the plate, followed by the addition of 20 μl of the appropriate HDAC isoform diluted in appropriate assay buffer. […] Final conditions used for each assay were: 1. HDAC 1, 0.3 nM total enzyme, 20 μM substrate BML-KI104; 2. […] HDAC 3/SMRT, 0.3 nM total enzyme, 20 μM substrate BML-KI104; 4. […] The reactions were stopped and developed by addition of 30 ul of HDAC developer solution containing a saturating level of HDAC inhibitor as follows: 1.

[3] = target: T2, Recombinant human HDAC8 (Homo sapiens, UniProt Q9BY41); experiment: Human HDAC enzyme inhibitor Fluor-de-Lys assay, HDAC8; format: biochemical
T2 construct: purchased Enzo Life Sciences BML-SE145-0100
T2 sequence (Q9BY41 1-377): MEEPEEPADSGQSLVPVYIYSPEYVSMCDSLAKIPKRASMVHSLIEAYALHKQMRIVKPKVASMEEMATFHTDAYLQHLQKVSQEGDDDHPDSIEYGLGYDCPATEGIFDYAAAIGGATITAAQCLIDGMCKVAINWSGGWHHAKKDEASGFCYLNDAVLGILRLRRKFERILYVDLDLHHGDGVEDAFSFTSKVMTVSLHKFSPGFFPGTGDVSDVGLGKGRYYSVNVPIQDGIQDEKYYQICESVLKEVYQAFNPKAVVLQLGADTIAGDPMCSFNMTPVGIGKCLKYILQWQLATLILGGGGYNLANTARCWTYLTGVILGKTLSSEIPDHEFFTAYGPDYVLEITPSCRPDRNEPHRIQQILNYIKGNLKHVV
Procedure: as §1, §2, §3, §4

[4] = read-out: Karn EC50 (nM) 0.1% NHS, 0.1% normal human serum, luciferase induction, 100% = 2 μM SAHA
[5] = read-out: Karn EC50 (nM) 5% NHS, 5% normal human serum, luciferase induction, 100% = 2 μM SAHA
[6] = recombinant human HDAC8, Fluor-de-Lys assay
[7] = read-out: Karn EC50 (nM) 0.1% NHS, 0.1% normal human serum
[8] = read-out: Karn EC50 (nM) 5% NHS, 5% normal human serum

SMILES	EC50 [1, 4] [nM]	EC50 [1, 5] [nM]	pIC50 ([2]; HDAC6, Fluor-de-Lys assay)	pIC50 [3, 6]	EC50 [1, 7] [nM]	EC50 [1, 8] [nM]	pIC50 [2]	pIC50 [3]
CCC(=O)CCCCC[C@H](NC(=O)[C@H]1CC12CCN(CC)CC2)c1ncc(-c2ccc3cccnc3c2)[nH]1 [Compound 344]	37	54	6.06	5.47				
CCC(=O)CCCCC[C@H](NC(=O)[C@@H]1CC12CCN(C(N)=O)CC2)c1ncc(-c2cc3ccccc3nc2OC)[nH]1 (single isomer, unassigned) [Compound 318]	861	4600	6.26	5.92				
CCC(=O)CCCCC[C@H](NC(=O)[C@H]1CC12CCN(C)CC2)c1ncc(-c2cc3ccc(Cl)cc3nc2OC)[nH]1 [Compound 177]					22	41	6.47	5.59
CCC(=O)CCCCC[C@H](NC(=O)[C@H]1CC12CCN(CC)CC2)c1ncc(-c2cc3ccn(CC)c(=O)c3cc2OC)[nH]1 [Compound 245]	18	22	6.16	5.05				
CCC(=O)CCCCC[C@H](NC(=O)[C@H]1CC12CCN(CC1CC1)CC2)c1ncc(-c2cc3cccnc3cc2OC)[nH]1 [Compound 394]	18	24	7.12	< 6.05				
CCC(=O)CCCCC[C@H](NC(=O)[C@H]1CCC12CCN(CC)CC2)c1ncc(-c2cc3ccccc3nc2OC)[nH]1 [Compound 338]	44	111	6.39	5.53				
CCC(=O)CCCCC[C@H](NC(=O)[C@H]1CC12CCN(C)CC2)c1ncc(-c2cc3ccc(-c4ncco4)cc3nc2OC)[nH]1 [Compound 175, (1S)—N-[(1S)-1-{5-[2-methoxy-7-(1,3-oxazol-2-yl)quinolin-3-yl]-1H-imidazol-2-yl}-7-oxononyl]-6-methyl-6-azaspiro[2.5]octane-1-carboxamide]					48	84	< 6.82	< 6.82
CCC(=O)CCCCC[C@H](NC(=O)[C@H]1CC12CCN(CC)CC2)c1ncc(-c2cc3ccccc3nc2O)[nH]1 [Compound 291]	192	295	6.13	< 4.82				
CCC(=O)CCCCC[C@H](NC(=O)[C@H]1CC12CCOCC2)c1ncc(-c2cc3ccccc3nc2OC)[nH]1 [Compound 63]					234	1790	6.21	5.51
CCC(=O)CCCCC[C@H](NC(=O)[C@H]1CC12CCN(CC)CC2)c1ncc(-c2ccc(OC)cc2OC)[nH]1 [Compound 183]					58	93	6.05	4.98
CCC(=O)CCCCC[C@H](NC(=O)[C@H]1CC12CCN(CC)CC2)c1ncc(-c2ccc(C)cc2OC)[nH]1 [Compound 208]					53	63	6.12	5.84
CCC(=O)CCCCC[C@H](NC(=O)[C@H]1CC12CCN(Cc1ccccc1)CC2)c1ncc(-c2cc3ccccc3nc2OC)[nH]1 [Compound 293]	75	175	6.14	5.09				
CCC(=O)CCCCC[C@H](NC(=O)[C@H]1CC12CCN(CC(F)(F)F)CC2)c1ncc(-c2cc3ccccc3nc2OC)[nH]1 [Compound 333]	113	719	5.96	5.22				
CCC(=O)CCCCC[C@H](NC(=O)[C@H]1CC12CCN(CCC(F)(F)F)CC2)c1ncc(-c2cc3ccccc3nc2OC)[nH]1 [Compound 332]	78	343	6.13	4.85				
CCC(=O)CCCCC[C@H](NC(=O)[C@H]1CC12CCN(Cc1cccnc1)CC2)c1ncc(-c2cc3ccccc3nc2OC)[nH]1 [Compound 294]	63	277	6.38	5.31				
CCC(=O)CCCCC[C@H](NC(=O)[C@H]1CC12CN(C)C2)c1ncc(-c2cc3ccccc3nc2OC)[nH]1 [Compound 323]	284	1290	6.42	5.64				
CCC(=O)CCCCC[C@H](NC(=O)[C@H]1CC12CCN(CC)CC2)c1ncc(-c2ccc(F)cc2OC)[nH]1 [Compound 197]					369	538	5.47	5.12
